What was measured:
K-562 cells = assay: MTT assay, K562; format: cell-based, human; settings: 50% growth inhibition
Experimental: (§1) As a first step in assessing their cytotoxic properties, all thioureas of the series were assayed against four human carcinoma cell lines, such as SW480 (primary colon cancer), SW620 (metastatic colon cancer), PC3 (metastatic prostate cancer), and K-562 (chronic myelogenous leukemia), as well as against the normal cell line HaCaT (immortalized human keratinocytes). Table 1 lists the compound concentrations that produced 50% of growth inhibition (IC50, μM), generated by the MTT method, in comparison with two commonly used chemotherapeutic agents, doxorubicin and cisplatin.
(§2) The human primary (SW480), metastatic (SW620) colon cancer, metastatic prostate cancer (PC3), chronic myelogenous leukemia (K-562), and human immortal keratinocyte (HaCaT) cell lines were purchased from the American Type Culture Collection (ATCC, Rockville, MD, USA). The cells were cultured in medium according to protocols (MEM for SW480 and SW620, RPMI 1640 for PC3 and K-562, and DMEM for HaCaT cells), supplemented with 10% FBS, penicillin (100 U/mL) and streptomycin (100 μg/mL), and cultured in a 37 °C/5% CO2 humidified incubator. The cells were cultured until appropriate confluence was achieved (80–90%). Next, they were harvested by treatment with 0.25% trypsin (Gibco Life Technologies, Waltham, MA, USA) excluding the non-adherent K-562 cell line and used for studies.
(§3) Cells without the studied compounds in medium were used as a control.
(§4) The cell viability was assessed by determination of MTT salt [3-(4,5-dimethylthiazol-2-yl)-2,5-diphenyltetrazoliumbromide] conversion by mitochondrial dehydrogenase. The MTT assay was performed as previously described. Alternatively, non-adherent leukemic cells were centrifuged in a microplate centrifuge (400× g, 5 min) during the collection stages. Experiments were repeated three times. Cell viability was presented as a percent of MTT reduction in the treated cells versus the control cells. The number of viable cells cultured without the studied compounds was assumed as 100%. A decreased relative MTT level indicated decreased cell viability. Thiourea compounds with the highest cytotoxic potential assessed by MTT determination (with the lowest IC50) were chosen for subsequent assessments of cytotoxicity mechanisms.

IL-6 level, SW620 cells = assay: IL-6 level ELISA, SW620; format: cell-based, human; settings: SW620, 72 h; for IL-6 Concentration: compound at IC50 concentration, ELISA; for reduction (inhibition) of IL-6 level: IC50 concentration, vs control
Experimental: Because of the low secretion of IL-6 by leukemic cells compared to solid tumors, and in addition to the lack of IL-6 receptors in K-562 cells, studies of the effect of derivatives 1–3, 8, and 9 on the inhibition of IL-6 release were carried out on primary and secondary solid tumor cells (SW480, SW620, and PC3). A remarkable inhibition of the IL-6 level was denoted for both colon cancer cell lines. Compound 2, identified as the strongest inhibitor, reduced the interleukin level by 54% (in SW480 cells) and 63% (SW620 cells). A significant effect was also observed in these cells for its structural isomer 3 (39% and 23% of inhibition, respectively). Additionally, compound 3 considerably affected the IL-6 level produced by PC3 cells, and reduced it by 33%. Similarly, the treatment with derivative 1 was effective for both colon cancer cells. In its presence, IL-6 release decreased by 28–36%, as compared to controls. For monosubstituted derivatives 8 and 9, the observed IL-6-reducing influence was weaker. They both inhibited IL-6 secretion in SW480 and SW620 cell lines by 25–32%. In contrast to compound 9, thiourea 8 additionally diminished the cytokine level in PC3 cells by 26%.
The IL-6 concentration in all studied cancer cells and normal HaCaT cell lines was measured by an ELISA kit (Diaclon SAS Besancon CEDEX, Besançon, France). […] IL-6 in cell culture supernatant was measured using the enzyme-linked immunosorbent assay in accordance with the manufacturer’s protocol.

SW620 cells = assay: MTT assay, SW620; format: cell-based, human; settings: Homo sapiens, SW-620, 72 h, 50% growth inhibition
Experimental: as §1, §2, §3, §4

SW480 cells = assay: Trypan blue assay, SW480; format: cell-based, human; settings: SW480, 72 h; for Cell Number × 10^5 / Viability (%): compound at IC50 concentration
Experimental: In order to estimate the tumor and normal cell population density and their viability after treatment with compounds 1–3, 8, and 9, the trypan blue dye exclusion assay was performed. The live cell number of all cancerous cells incubated for 72 h with the studied thioureas was considerably lower in comparison with the controls (Table 2; Figure S1A). The highest reduction in cell amount was denoted for both colon SW480 and SW620 cells treated with the dichlorophenyl derivative 2, and it accounted for 93%. […] Similarly, a noticeable decline in both colon cancer cell populations was observed after treatment with the ortho-substituted compound 8. The number of live cells equaled 12% and 18%, respectively, as compared to controls. This thiourea also led to a reduction of PC3 cells of 38%, and leukemia K-562 cell lines of 27%. The number of SW620 and PC3 cells decreased by 72% and 63% in the presence of para-substituted compound 9. However, the reducing influence of this thiourea on the number of other cancerous cells was at the level of 21–32%. […] A significant effect on the other studied pathological cells was also noticed and accounted for 32–46%. Furthermore, the derivative 3 reduced the amount of live cancer cells by 32–59%, of which its decreasing impact on colon cancer cells was the greatest.
The live cell count was assessed by the trypan blue exclusion dye assay using an automated cell counter (CountessTM Invitrogen, Waltham, MA, USA). Untreated cells were used as the control.

HaCaT cells = assay: Annexin V-FITC/PI flow cytometry, HaCaT; format: cell-based, human; settings: 72 h, IC50 concentration, Annexin V-FITC/PI
Experimental: (§5) To estimate the mechanism of anticancer activity of the selected compounds 1–3, 8, and 9, their effect on both early and late apoptosis was evaluated by flow cytometry analysis. […] Additionally, visible late apoptosis-inducing properties in these cell lines were denoted for the compound 9 (47% ± 3.0%), which was twice as strong towards the colon tumor cells mentioned above. The apoptotic properties of analogs 3 and 8 in K-562 cells varied from 30% ± 1.6% to 33% ± 2.3%. […] Whereas the apoptosis-generating influence of derivatives 2 and 3 on normal keratinocytes was higher (29% and 23%), their selectivity measured by MTT methods is favorable. The obtained results are in agreement with the IC50 values assigned to pathological cancer cell lines. The cells were cultured and harvested under the conditions described in Section 3.2.1. […] The effect of these compounds on the process of early and late apoptosis and necrosis was determined as described previously by dual staining with Annexin V:FITC and propidium iodide, according to the manufacturer’s protocol (Becton Dickinson). The cells that were Annexin V:FITC positive and PI negative were identified as early apoptotic, and Annexin V:FITC and PI positive as late apoptotic or necrotic.

PC3 cells = assay: Annexin V-FITC/PI flow cytometry, PC3; format: cell-based, human; settings: PC3, 72 h, IC50 concentration
Experimental: as §5

Row | Compound | IC50 (K-562 cells; 72 h) [µM] | IC50 (K-562 cells; Homo sapiens, K562, 72 h) [µM] | IC50 (SW620 cells) [µM] | melting point [°C] | IL-6 Concentration (IL-6 level, SW620 cells) [pg/mL] | Cell Number × 10^5 (SW480 cells) | Viability (%) (SW480 cells) | reduction (inhibition) of IL-6 level (IL-6 level, SW620 cells) [%] | reduction in live cell number (SW480 cells; IC50 concentration, vs control) [%] | cells in late apoptosis (HaCaT cells) [%] | cells in late apoptosis (PC3 cells) | number of live cells as compared to controls (SW480 cells; IC50 concentration) [%]
1 | FC(F)(F)c1cccc(NC(=S)Nc2ccc(Cl)cc2)c1 [Compound 9, 1-(4-chlorophenyl)-3-[3-(trifluoromethyl)phenyl]thiourea] | 10.2 ± 0.35 | 10.2 to 12.9 | 6.7 ± 1.74 | – | 5.2 ± 0.03 | 2.5 ± 0.12 × 10^5 | 72 ± 2.25 | – | – | – | – | –
2 | FC(F)(F)c1ccc(NC(=S)Nc2cccc(C(F)(F)F)c2)cc1 [Compound 8, 1-[3-(trifluoromethyl)phenyl]-3-[4-(trifluoromethyl)phenyl]thiourea] | – | 54.8 ± 0.24 | 7.6 ± 1.75 | 134 to 136 | 5.8 ± 0.06 | 0.4 ± 0.15 × 10^5 | 90 ± 2.30 | – | – | – | 25% ± 1.5% | 12
3 | FC(F)(F)c1cccc(NC(S)=Nc2ccc(Cl)cc2Cl)c1 [Compound 3, 1-(2,4-dichlorophenyl)-3-[3-(trifluoromethyl)phenyl]thiourea] | – | 54.3 ± 1.86 | 5.8 ± 0.76 | – | 5.9 ± 0.03 | 1.5 ± 0.10 × 10^5 | 90 ± 1.30 | 23 | – | 23 | – | –

The next lines start with results.

Row | IC50 (K-562 cells; 72 h) [µM] | IC50 (K-562 cells; Homo sapiens, K562, 72 h) [µM] | IC50 (SW620 cells) [µM] | melting point [°C] | Compound | IL-6 Concentration (IL-6 level, SW620 cells) [pg/mL] | Cell Number × 10^5 (SW480 cells) | Viability (%) (SW480 cells) | reduction (inhibition) of IL-6 level (IL-6 level, SW620 cells) [%] | reduction in live cell number (SW480 cells; IC50 concentration, vs control) [%] | cells in late apoptosis (HaCaT cells) [%] | cells in late apoptosis (PC3 cells) | number of live cells as compared to controls (SW480 cells; IC50 concentration) [%]
4 | – | 6.3 ± 1.28 | 1.5 ± 0.72 | – | FC(F)(F)c1cccc(NC(=S)Nc2ccc(Cl)c(Cl)c2)c1 [Compound 2, 1-(3,4-dichlorophenyl)-3-[3-(trifluoromethyl)phenyl]thiourea] | 2.8 ± 0.03 | 0.3 ± 0.35 × 10^5 | 45 ± 2.40 | 63 | 93 | 29 | – | –
5 | – | 6.8 ± 1.57 | 9.4 ± 1.85 | – | Fc1ccc(NC(=S)Nc2cccc(C(F)(F)F)c2)cc1Cl [Compound 1, 1-(3-chloro-4-fluorophenyl)-3-[3-(trifluoromethyl)phenyl]thiourea] | 4.9 ± 0.01 | 2.0 ± 0.30 × 10^5 | 69 ± 1.30 | – | – | – | – | –

Reference: PMC8623398, “Investigation of the Mechanisms of Cytotoxic Activity of 1,3-Disubstituted Thiourea Derivatives” (Pharmaceuticals, 2021)
